Experimental data reported in patent US7326768B2, “Goodpasture antigen-binding protein isoforms and protein misfolded-mediated disorders” (priority 2003, dated 2008).
Entries after “also recorded” stand apart in the source; their conditions may differ.

What was measured:
rat liver lysosomes = format: in vivo; settings: lysosomes from liver of leupeptin-treated vs untreated rats
Experimental: FIG. 6. Identification of 91-kDa GPBP isoform in rat liver lysosomes and evidence for processing to 44-47-kDa isoforms. In A, similar amounts (˜50 μg) of lysosomal fractions from liver of untreated (C) or leupeptin-treated (L) rats were analyzed by Western blot using Mab6 antibodies. In B, lysosomal fractions as in A were further fractioned and whole (W), soluble (S) or non-soluble (M) fractions were similarly analyzed.
Subcellular fractioning and related studies. Rat liver subcellular fractionation was essentially performed as indicated in Aniento, F., Roche, E., Cuervo, A. M., Knecht, E. (1993). J. Biol. Chem. 268, 10463-10470. For some purposes lysosomal fractions (freshly prepared entire lysosomes) were dispersed in pure water and subjected to ten consecutive cycles of freezing and thawing to alter lysosomal membrane integrity (broken lysosomes). For other purposes, lysosomal fractions were similarly disrupted in the presence of protease inhibitors (PMSF 2 mM, leupeptin 0.2 mM and EDTA 2 mM) and subsequently centrifuged 130,000×g for 10 min at room temp to separate the soluble lysosomal fraction (also called here lysosomal extract) from the non-soluble fraction which, after rinse with 0.3 M saccharose in 10 mM MOPS pH 7.2, was used as the lysosomal membrane fraction.

[1] = test system: α3(IV)NC1-expressing cells (HEK293); experiment: α3(IV)NC1 conformer production in cultured cells (Western blot of culture media); format: cell-based, human; settings: for α3(IV)NC1 conformer production in cultured cells: synthetic peptides 100-200 μM, organic compounds 5-50 μM, 24-48 h
GPBP mRNA = experiment: Silencing of GPBP expression in 293 cells (Western blot); format: cell-based, human; settings: 293 cells transfected with silencer plasmid
Experimental: FIG. 4. Cellular 91- and 120-kDa GPBP-related polypeptides are translation products of GPBP mRNA. Similar amounts (˜50 μg) of lysates from non-transfected 293 cells (1) or from 293 cells transfected with a plasmid encoding for SiGFP (2), SiGPBP (3), SiGPBP/Δ26-1 (4) SiGPBP/Δ26-2 (5), SiGPBP/Δ26-3 (6), SiGPBP/Δ26-4 (7) were analyzed by Western blot using the indicated antibodies.
SimRNA production. Silencers were generated using pSilencer 2.1-U6 hygro plasmid (Ambion) following manufacturers recommendations. The oligonucleotide pairs used were:
Recombinant protein expression in cultured cells. The pcDNA3-based contructs containing the cDNA encoding the different human proteins of interest were used to transfect human 293 cells using standard calcium phosphate procedures in ProFection Mammalian Transfection System (Promega). 24-48 h after transfection cell lysates were used for Western blot, precipitation or immunoprecipitation studies. Cells expressing GPBP or derived deletion mutants were collected on ice with 50 mM Tris HCl pH 7.4, 0.05% Triton X-100, 1 mM PMSF and 5 μg/ml leupeptin, disrupted by vortex and insoluble material discarded by centrifugation at 14.000 rpm in Eppendorf at 4° C. for 10 min and supernatant used for Western blot analysis.

recombinant human GPBP = target: T1, recombinant human GPBP (Homo sapiens, UniProt Q9Y5P4); experiment: In vitro phosphorylation: GPBP kinase activity / autophosphorylation; settings: for GPBP kinase activity in vitro (autophosphorylation): modulators at 200 μM, 10 min autophosphorylation reaction; for effect on GPBP autophosphorylation at decreasing concentrations: decreasing concentrations up to 10 μM
T1 sequence (Q9Y5P4 1-624): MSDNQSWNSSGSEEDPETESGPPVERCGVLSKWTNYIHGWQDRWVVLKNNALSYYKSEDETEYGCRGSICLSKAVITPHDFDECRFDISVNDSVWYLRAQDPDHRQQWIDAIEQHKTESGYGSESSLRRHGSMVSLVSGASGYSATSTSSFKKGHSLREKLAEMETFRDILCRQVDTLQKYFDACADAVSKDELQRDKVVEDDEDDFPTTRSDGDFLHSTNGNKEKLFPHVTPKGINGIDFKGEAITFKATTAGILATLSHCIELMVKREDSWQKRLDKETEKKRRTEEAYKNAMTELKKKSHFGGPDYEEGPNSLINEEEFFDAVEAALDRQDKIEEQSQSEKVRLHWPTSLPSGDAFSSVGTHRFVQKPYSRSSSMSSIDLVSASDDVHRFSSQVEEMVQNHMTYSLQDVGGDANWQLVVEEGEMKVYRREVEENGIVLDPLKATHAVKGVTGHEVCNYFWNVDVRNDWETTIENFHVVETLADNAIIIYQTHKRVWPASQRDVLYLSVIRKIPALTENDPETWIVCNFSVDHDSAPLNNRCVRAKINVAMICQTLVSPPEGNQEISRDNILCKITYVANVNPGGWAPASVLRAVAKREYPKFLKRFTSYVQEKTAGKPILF

GPBP-PrP^C complex = GPBP-PrP^C complex (Homo sapiens, UniProt Q9Y5P4); format: binding, bovine PrP^C
C57BL/6 mice = experiment: DAB-Am-4 treatment of control mice (genetic background control); format: in vivo; settings: C57BL/6 control mice
Experimental: Animal studies. NZW, male or female, 4-6 month-old were injected intraperitoneally either with 1 μg/g of body weight of DAB-Am-4 and/or with 20 μg/g of body weight of the Q2L or Q2D peptide. These products were administered in a volume of 500 μl of steril saline solution 3 times per week, at alternate days, during 12 consecutive weeks. Age-matched uninjected mice were used as controls. At the end of the experiment, mice were sacrificed and kidneys were fixed in 10% paraformaldehide and processed for pathological studies. Similar DAB-Am-4 treatment studies were performed on C57BL/6 animals for genetic background control.

NZW mice = experiment: Degenerative glomerulopathy in NZW mice (histochemical studies of kidney); format: in vivo
GPBP = target: T2, GPBP (Homo sapiens, UniProt Q9Y5P4); experiment: Auto-phosphorylation of GPBP deletion mutant at pH 5; format: biochemical
T2 sequence (Q9Y5P4 1-299): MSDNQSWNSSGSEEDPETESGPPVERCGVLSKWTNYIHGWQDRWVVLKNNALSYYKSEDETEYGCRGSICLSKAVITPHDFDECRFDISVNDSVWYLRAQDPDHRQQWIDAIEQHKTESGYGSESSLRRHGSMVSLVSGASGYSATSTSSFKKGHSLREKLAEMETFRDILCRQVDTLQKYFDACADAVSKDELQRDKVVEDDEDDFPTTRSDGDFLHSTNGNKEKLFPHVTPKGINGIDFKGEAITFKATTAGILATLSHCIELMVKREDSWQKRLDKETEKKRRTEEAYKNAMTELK

With CC(=O)N[C@@H](CC(C)C)C(=O)N[C@@H](CC(C)C)C(=O)N[C@H](C=O)CCCNC(=N)N [leupeptin] the “lysosomal GPBP immunoreactive polypeptides” value (rat liver lysosomes) was 44-47-kDa polypeptides significantly diminished and the “presence of α3(IV)NC1 proteolytic products” value [1] was “inhibited the presence of proteolytic products”.

“SiGPBP/Δ26-2: silencer of GPBP and/or GPBPΔ26 expression, SEQ ID NO:48 (guide AAACAGAGUAUGGCUGCAGAG; listed as RNA, chemistry not given here)” was tested, and the “GPBP expression (endogenous 91- and 120-kDa GPBP)” value (“GPBP expression” below) (GPBP mRNA) was “silenced endogenous GPBP more efficiently than SiGPBP/Δ26-4” and the “GPBP expression” value (GPBP mRNA; listed as siGPBPΔ26-2) was “diminish GPBP and/or GPBPΔ26 expression”.

For Ac-EKTAGKPILF-OH [Q4], the “α3(IV)NC1 conformer production in cultured cells” value [1] was “reduction in conformer production; also recorded: more limited inhibitory effect” and the “GPBP kinase activity in vitro (autophosphorylation)” value (from here on “GPBP kinase activity in vitro”) (recombinant human GPBP) was “inhibited GPBP autophosphorylation in a more limited manner; also recorded: poor inhibitor”.

CN([C@@H](Cc1ccc(OS(=O)(=O)c2cccc3cnccc23)cc1)C(=O)N1CCN(c2ccccc2)CC1)S(=O)(=O)c1cccc2cnccc12 [KN62, 1-[N,O-bis-(5-Isoquinolinesulfonyl)-N-methyl-L-tyrosyl]-4-phenylpiperazine, reference compound] was tested, and the “α3(IV)NC1 conformer production in cultured cells” value [1] was “reduced cell conformer production” and the “GPBP kinase activity in vitro” value (recombinant human GPBP) was “inhibited GPBP kinase activity in vitro to a larger extent than KN93”.

Cl.N [NH4Cl] was tested, and the “α3(IV)NC1 conformer production” value ([1]; 20 mM NH4Cl) was “reduced conformer production”.

For “SiGPBP/Δ26-1: silencer of GPBP and/or GPBPΔ26 expression, SEQ ID NO:47 (AAACUACAUUCAUGGGUGGCA; listed as RNA, chemistry not given here)”, the “GPBP expression” value (GPBP mRNA) was “diminish GPBP and/or GPBPΔ26 expression”.

In the case of CC[C@@H](C)[C@@H](NC(=O)[C@@H](CS)NC(=O)[C@@H](Cc1c[nH]cn1)NC(=O)[C@@H](CO)NC(=O)[C@@H](CC(C)C)NC(=O)[C@H](NC(=O)[C@@H](C)NC(=O)[C@@H](CC(C)C)NC(C)=O)[C@H](C)O)C(=O)N[C@H](CCC(=O)O)C(=O)N[C@H](CC(C)C)C(=O)N[C@H](CCSC)C(=O)N[C@@H](C(=O)N[C@H](CCCCN)C(=O)N[C@H](CCCNC(=N)N)C(N)=O)C(C)C [Q2D], the “effect on GPBP autophosphorylation at decreasing concentrations” value (recombinant human GPBP) is reported as “inhibition”, the “GPBP kinase activity in vitro” value (recombinant human GPBP) is reported as “more efficient inhibiting” and the “GPBP kinase activity in vitro” value (recombinant human GPBP; listed as D-amino acid version of Q2) is reported as “more potent inhibitory activity”. For the same molecule, the “GPBP-PrP^C complex formation” value (GPBP-PrP^C complex) was “fully inhibited”.

In the case of CC[C@H](C)[C@H](NC(=O)[C@H](CS)NC(=O)[C@H](Cc1c[nH]cn1)NC(=O)[C@H](CO)NC(=O)[C@H](CC(C)C)NC(=O)[C@@H](NC(=O)[C@H](C)NC(=O)[C@H](CC(C)C)NC(C)=O)[C@@H](C)O)C(=O)N[C@@H](CCC(=O)O)C(=O)N[C@@H](CC(C)C)C(=O)N[C@@H](CCSC)C(=O)N[C@H](C(=O)N[C@@H](CCCCN)C(=O)N[C@@H](CCCNC(=N)N)C(N)=O)C(C)C [Q2L], the “GPBP-PrP^C complex formation” value (GPBP-PrP^C complex) is reported as “efficiently inhibited”.

In the case of “SiGPBP/Δ26-4: silencer of GPBP and/or GPBPΔ26 expression, SEQ ID NO:50 (guide AAAGGCGUCACAGGACAUGAA; listed as RNA, chemistry not given here)”, the “GPBP expression” value (GPBP mRNA) is reported as “diminish GPBP and/or GPBPΔ26 expression”.

For “Ac-VLMASLETLCRIHKI-NH2 [Q2Lr, reference compound]”, the “GPBP-PrP^C complex formation” value (GPBP-PrP^C complex) was “no effect on complex formation”.

“SiGPBP/Δ26-3: silencer of GPBP and/or GPBPΔ26 expression, SEQ ID NO:49 (guide AAGUACUUUGAUGCCUGUGCU; listed as RNA, chemistry not given here)” was tested, and the “GPBP expression” value (GPBP mRNA) was “diminish GPBP and/or GPBPΔ26 expression”.

For “SiGPBP: silencer of GPBP expression, SEQ ID NO:51 (AAGCCCUAUAGUCGCUCUUCC; listed as RNA, chemistry not given here)”, the “GPBP expression” value (GPBP mRNA) was “diminish GPBP and/or GPBPΔ26 expression”.

With NCCCN(CCCN)CCCCN(CCCN)CCCN [DAB-Am-4, polypropylenimine tetraamine dendrimer, reference compound] the “α3(IV)NC1 conformer production in cultured cells” value [1] was “potent activator”, the “α3(IV)NC1 conformer production in cultured cells” value ([1]; listed as DAB-Am4) was “efficient increase in conformer production” and the “effect on GPBP autophosphorylation at decreasing concentrations” value (recombinant human GPBP) was “activation”. The “GPBP kinase activity in vitro” value (recombinant human GPBP) was “potent activator; also recorded: caused induction”, the histological changes (C57BL/6 mice) was “not observed histological changes of relevance” and the “progression of the glomerulopathy” value (NZW mice; 4-6 month-old NZW, 1 μg/g i.p. 3 times per week, 12 weeks) was “acceleration of the degenerative process, resulting in premature glomerulosclerosis at 7-9 month of age”. For the same molecule, the “morphological pattern of disease progression” value (NZW mice; NZW, DAB-Am-4 treatment) was “progression through Stages 3b and 4b”.

For CN[C@@H]1C[C@H]2O[C@@](C)([C@@H]1OC)n1c3ccccc3c3c4c(c5c6ccccc6n2c5c31)C(=O)NC4 [staurosporine, reference compound], the “GPBP kinase activity in vitro” value (recombinant human GPBP) was “efficiently impaired”.

B1: residues 1-299 of GPBP: C-terminal deletion mutant of GPBP with approximately 44-kDa molecular mass, SEQ ID NO:38 (protein)
chain: MSDNQSWNSSGSEEDPETESGPPVERCGVLSKWTNYIHGWQDRWVVLKNNALSYYKSEDETEYGCRGSICLSKAVITPHDFDECRFDISVNDSVWYLRAQDPDHRQQWIDAIEQHKTESGYGSESSLRRHGSMVSLVSGASGYSATSTSSFKKGHSLREKLAEMETFRDILCRQVDTLQKYFDACADAVSKDELQRDKVVEDDEDDFPTTRSDGDFLHSTNGNKEKLFPHVTPKGINGIDFKGEAITFKATTAGILATLSHCIELMVKREDSWQKRLDKETEKKRRTEEAYKNAMTELK
modifications: Derived sequence
For B1, the auto-phosphorylation activity (GPBP) was “greater auto-phosphorylation activity at pH 5 than full sized GPBP”.
